Reference: patent US6692927B2, “Bax degradation involvement in tumor survival and progression” (University of South Florida, priority 2000, dated 2004)
Where a SMILES comes first, the peptide text is derived from it. [ ]: non-standard residue; d: D form. The star is where a group is joined. Nva = CCC[C@H](N)C(=O)O; Cbz = O=C(OCc1ccccc1)*

Tests used:
[1] = tested on: Bax degradation activity; experiment: cell-free Bax degradation assay, inhibitor added to MCF-7 cell extract; type: biochemical, human; details: 10-minute preincubation of MCF-7 cell extract with inhibitor (100 mM per FIG. 9C legend), 37° C., 4 h
Experimental: FIGS. 9A-9F show Bax degradation depends on ubiquitination, proteasome and ATP. (FIG. 9A) Jurkat cells (0 h) were treated with either 50 μM LLnV or 10 μM lactacystin, followed by preparation of Bax immunoprecipitates (with clone 6A7), which were immunoblotted with an ubiquitin antibody. Positions of putative ubiquitinated Bax proteins (p47, p55) are indicated at left. The nature of the ˜30 kDa and ˜84 kDa remains unclear. (FIG. 9B) The [^35S]-labeled Bax (upper) or Bcl-2 (lower) protein (1 μl) were incubated at 37° C. for 2 h with either buffer Z only (lane 1) or […] protein extract of MCF-7 cells grown exponentially (lane 2) or pretreated for 8 h with […] LLnV (lane 3). (FIG. 9C) The [^35S]-labeled Bax protein (1 μl) was incubated with either buffer Z only (lane 1) or 100 μg MCF-7 cell lysate at 37° C. for 4 h, in the presence of an indicated inhibitor (100 mM; lanes 3-8) or an equal volume of DMSO (lane 2) in buffer Z. A weak band of ˜16 kDa (indicated by an arrow) is probably an intermediate product of proteasome-mediated Bax degradation. (FIG. 9D) The proteasome in MCF-7 whole cell lysate (W lys, lane 1) was precipitated by using either ultraspin (ULS) or a proteasome subunit a6 antibody (IP). Both supernatant (lanes 2, 4) and pellet (lanes 3, 5) fractions were examined by Western blot assay using antibody to the proteasome a6 subunit (MW 33 kDa). (FIG. 9E) Bax degradation assay was performed as in FIG. 9B, with addition of buffer Z (lane 1) or 100 μg protein from MCF-7 whole cell lysate (lane 2), ultraspun supernatant (lane 3) or plus the pellet (lane 4), immunodepleted supernatant (lane 5) or plus a purified 20S proteasome ([…]; lane 6), or the purified proteasome alone (2 μg; lane 7). (FIG. 9F) Bax degradation assay was performed as in FIG. 9B, in the absence (lane 3) or presence of 10 mM ATP (lane 2) or 10 mM ATP-y-S (lane 4).
In vitro Bax Degradation Assay: Human Bax-a cDNA subcloned into pcDNA3 was a gift from Dr. Hong-gang Wang. Human full length of bcl-2-a cDNA was cloned from Jurkat T cells and subcloned into pcDNA3.1(−) as described+. Both bax and bcl-2 plasmids were used for coupled in vitro transcription/translation (Promega; Madison, Wis.) in the presence of [^35S]methionine (Amersham Pharmacia Biotech; Piscataway, N.J.). Protein extracts were prepared from either MCF-7 cells or prostate tumor tissues in buffer Y (50 mM Tris-HCl, pH 7.4, 250 mM NaCl, 1% Triton X-100, 0.1% SDS, 1 mM EDTA), and used for Bax (or Bcl-2) degradation assay. Briefly, 1 microl of [^35S]-labeled Bax (or Bcl-2) protein was incubated at 37° C. for 2-4 hours with 100-200 microg protein extract in buffer Z (50 mM Tris-HCl, pH 7.4, 5 mM MgCl2, 3 mM DTT, 10 mM ATP, 10 mM phosphocreatine, 10 microg/ml creatine phosphokinase, 10 microg/ml aprotinin, 10 microg/ml leupeptin, 10% glycerol and 2 microg/ml ubiquitin). After incubation, the samples were subjected to gel electrophoresis and autoradiography. Under the cell-free assay conditions, the calpain-mediated Bax cleavage activity was blocked by omission of calcium and addition of the protease inhibitor leupeptin (Wood et al, 1998). To deplete the proteasome, MCF-7 cell lysates were either immunoprecipitated with the 20S proteasome subunit a6 antibody or ultracentrifugated at 100,000×g for 6 hours. The proteasome-enriched pellet fraction was resuspended in buffer Y.
To further study the proteasome activity that degrades Bax protein, a cell-free Bax degradation assay was developed by using an in vitro-translated, [^35S]-labeled Bax protein as substrate (FIG. 9B, upper, lane 1). The Bax degradation activity is present in protein extracts prepared from exponentially growing MCF-7 (FIG. 9), K562, VA-13, WI-38, Jurkat T or HL-60 cells. The labeled Bax was almost completely degraded by a MCF-7 cell extract after 2 to 4 hours incubation at 37° C. (FIG. 9B, upper, and FIG. 9C, lanes 2 vs. 1). […]

[2] = tested on: human breast cancer (SK-BR-3, MDA-MB-468) cells; experiment: cellular detachment of breast cancer cells; type: cell-based; details: breast cancer versus normal (MCF-10A) cells
Experimental: Proteasome inhibitors selectively induce apoptosis in human breast cancer, but not normal, cells. […] Cells of both human breast cancer lines became detached in a lactacystin-concentration-dependent manner (FIG. 3). No detachment was induced in the normal human breast cells MCF-10A after treatment with lactacystin for 48 hours (FIG. 3) or even 72 hours. Proteasome inhibition-induced detachment of breast cancer cells is due to apoptosis (An et al., in press).

CCC[C@@H](C=O)NC(=O)[C@H](CC(C)C)NC(=O)[C@H](CC(C)C)NC(=O)OCc1ccccc1 [LLnV] (Cbz-Leu-Leu-[Nva]-aldehyde)
Bax degradation process/activity [1]: blocked | cellular detachment [2]: selectively induced cellular detachment

CC(=O)N[C@@H](CSC(=O)[C@]1([C@@H](O)C(C)C)NC(=O)[C@H](C)[C@@H]1O)C(=O)O [lactacystin]
Bax degradation process/activity [1]: not | cellular detachment [2]: selectively induced cellular detachment
